Tests used:
[1] = tested on: cancer cells lifted from the culture (gemcitabine-treated pancreatic tumor cultures); assay: impedance cytometry of cancer cell samples exposed to chemotherapeutic drug; format: cell-based; settings: about 48 hours, FIG. 2A/2B
Description: Individual cells from the biological sample or culture 102 can flow (e.g., propelled via a focusing flow channel of the impedance cytometry device 104) through the main channel 114 of the test cell 106 at a specified throughput (e.g., within a range of about 200 cells/s to about 500 cells/s) past electrodes or microelectrodes under an AC electric field applied over a specified range of frequencies (e.g., within a range between about 0.5 megahertz (MHz) to 50 MHz). In an example, an impedance of respective detected specimen can be measured by the measurement circuitry 108 concurrently or simultaneously using a plurality of discrete frequencies, e.g., a reference frequency within a range of about 15 MHz and about 20 MHz, and one or more analysis frequencies within a specified analysis frequency range. […] The electrophysiology of the cancer cells lifted from the culture after various gemcitabine treatment conditions can be measured by impedance cytometry to determine impedance magnitude (|Z|) and impedance phase (ϕZ) at a low (0.5 MHz) and a high frequency (18 MHz) for analyzing individual cellular 204 and/or sub-cellular 202 events. […] At a specified threshold frequency (e.g., at about 18 MHz), the impedance signal can be effectively determined by the dielectric properties of the cell interior, rather than properties the cell exterior. […]

[2] = tested on: highly tumorigenic cells derived from the xenograft 122 (patient-derived tumor cells); assay: cell proliferation assays comparing phenotypes over drug concentration ranges; format: cell-based
Description: FIG. 1B is a schematic example of a progression of drug resistance onset of in vitro cancer cells. In an example, a tumor tissue sample 120 can be collected from a cancer patient 118 such as via surgical resection or biopsy. Cells from the tumor tissue sample 120 can be propagated, e.g., within immunocompromised mice as a xenograft 122. […] Once propagated, the line established from the xenograft 122 can be maintained in culture for treatment from a chemotherapeutic drug 124, such as gemcitabine, a fluorouracil, doxorubicin, or any other drug used in the treatment of cancer. In an example involving gemcitabine treatment on highly tumorigenic cells derived from the xenograft 122, the range of gemcitabine levels that lead to drug sensitivity can be assessed by cell proliferation assays 126. Depending on the drug treatment, the in vitro cancer cells can be drug resistant, e.g., with varying degrees of resistance to one or more drugs. The CAFs can also be further propagated in vitro and subjected to additional drug treatment(s) to further examine the drug resistance of the cancer cells. […] These structures can be associated with apoptosis-induced cell disassembly, which generates ABs of particular composition and structure. These phenotypes can be used as a model to help identify and stratify ABs in subsequent patient-derived tumor cells using impedance cytometry techniques based on comparison of their single-particle sensitivity levels.

Nc1ccn([C@@H]2O[C@H](CO)[C@@H](O)C2(F)F)c(=O)n1 [chemotherapeutic drug 124, gemcitabine]
sub-cellular events (release of ABs) ([1]; increasing drug concentration 0.01, 0.1, 1 μg mL^−1 vs untreated): rise in sub-cellular events 202 | impedance phase at 18 MHz (ϕZ18 MHz), cellular and sub-cellular populations ([1]; increasing drug concentration): downward shift in ϕZ18 MHz | phenotype (apoptosis-induced cell disassembly structures) ([2]; at about 0.01 μg mL^−1): generation of blebs of varying size on the plasma membrane | phenotype (apoptosis-induced cell disassembly structures) ([2]; at about 0.1 μg mL^−1): presence of large protrusions | phenotype (apoptosis-induced cell disassembly structures) ([2]; at about 1 μg mL^−1): emergence of beaded structures
